ChEMBL document CHEMBL3877274, “Preparation of novel ring-A fused azole derivatives of betulin and evaluation of their cytotoxicity” (Eur J Med Chem, 2017)
The source made the active and inactive calls. The rule behind the calls is not given here.

Key:
[1] = Cytotoxicity against human A549 cells measured after 72 hrs by MTT assay; assay type: functional, cell-based; conditions: A549, 72 h
[2] = Cytotoxicity against human MS cells measured after 72 hrs by MTT assay; assay type: functional, cell-based
[3] = Cytotoxicity against human Hep2 cells measured after 72 hrs by MTT assay; assay type: functional, cell-based; conditions: HEp-2, 72 h
[4] = Cytotoxicity against human HCT116 cells measured after 72 hrs by MTT assay; assay type: functional, cell-based; conditions: HCT-116, 72 h
[5] = Cytotoxicity against human TE32 cells measured after 72 hrs by MTT assay; assay type: functional, cell-based; conditions: RD
[6] = Cytotoxicity against human HEK293 cells measured after 72 hrs by MTT assay; assay type: toxicity, cell-based
[7] = test system: HCT-116; assay: Induction of apoptosis in human HCT116 cells assessed as mitochondrial membrane permeability loss by measuring rhodamine 123 accumulation at 6.7 uM measured after 18 hrs by fluorescence inverted microscopic analysis; assay type: functional, cell-based
[8] = test system: HCT-116; assay: Induction of apoptosis in human HCT116 cells assessed as chromatin condensation at 6.7 uM measured after 18 hrs by Hoechst 33258 staining based fluorescence inverted microscopic analysis; assay type: functional, cell-based
[9] = test system: HCT-116; assay: Induction of apoptosis in human HCT116 cells assessed as viable cells at 6.7 uM measured after 18 hrs by Annexin-V FITC/propidium iodide staining based flow cytometry (reference value: 92.83%); assay type: functional; conditions: HCT-116, 18 h, read-out: Activity
[10] = test system: HCT-116; assay: Induction of apoptosis in human HCT116 cells assessed as early apoptotic cells at 6.7 uM measured after 18 hrs by Annexin-V FITC/propidium iodide staining based flow cytometry (reference value: 3.92%); assay type: functional
[11] = test system: HCT-116; assay: Induction of apoptosis in human HCT116 cells assessed as late apoptotic cells at 6.7 uM measured after 18 hrs by Annexin-V FITC/propidium iodide staining based flow cytometry (reference value: 1.13%); assay type: functional
[12] = test system: HCT-116; assay: Induction of apoptosis in human HCT116 cells assessed as necrotic cells at 6.7 uM measured after 18 hrs by Annexin-V FITC/propidium iodide staining based flow cytometry (reference value: 2.12%); assay type: functional
[13] = test system: HCT-116; assay: Induction of apoptosis in human HCT116 cells assessed as appearance of half moon or crescent shape nuclei at 6.7 uM measured after 18 hrs by Hoechst 33258 staining based fluorescence inverted microscopic analysis; assay type: functional, cell-based
[14] = test system: HCT-116; assay: Induction of apoptosis in human HCT116 cells assessed as nuclear fragmentation at 6.7 uM measured after 18 hrs by Hoechst 33258 staining based fluorescence inverted microscopic analysis; assay type: functional, cell-based
[15] = test system: HCT-116; assay: Induction of apoptosis in human HCT116 cells assessed as formation of apoptotic bodies at 6.7 uM measured after 18 hrs by Hoechst 33258 staining based fluorescence inverted microscopic analysis; assay type: functional, cell-based
[16] = Toxicity in po or ip dosed mouse administered as single dose measured after 14 days; assay type: organism-based; conditions: in vivo
[17] = test system: HCT-116; assay: Cytotoxicity against human HCT116 cells at 5.7 uM by MTT assay; assay type: functional, cell-based; conditions: TDE = time-dependent effect
[18] = test system: HCT-116; assay: Induction of apoptosis in human HCT116 cells assessed as mitochondrial membrane permeability loss by measuring rhodamine 123 accumulation at 5.7 uM measured after 18 hrs by fluorescence inverted microscopic analysis; assay type: functional, cell-based
[19] = test system: HCT-116; assay: Induction of apoptosis in human HCT116 cells assessed as chromatin condensation at 5.7 uM measured after 18 hrs by Hoechst 33258 staining based fluorescence inverted microscopic analysis; assay type: functional, cell-based
[20] = test system: HCT-116; assay: Induction of apoptosis in human HCT116 cells assessed as viable cells at 5.7 uM measured after 18 hrs by Annexin-V FITC/propidium iodide staining based flow cytometry (reference value: 92.83%); assay type: functional; conditions: HCT-116, 18 h, read-out: Activity
[21] = test system: HCT-116; assay: Induction of apoptosis in human HCT116 cells assessed as early apoptotic cells at 5.7 uM measured after 18 hrs by Annexin-V FITC/propidium iodide staining based flow cytometry (reference value: 3.92%); assay type: functional
[22] = test system: HCT-116; assay: Induction of apoptosis in human HCT116 cells assessed as late apoptotic cells at 5.7 uM measured after 18 hrs by Annexin-V FITC/propidium iodide staining based flow cytometry (reference value: 1.13%); assay type: functional
[23] = test system: HCT-116; assay: Induction of apoptosis in human HCT116 cells assessed as necrotic cells at 5.7 uM measured after 18 hrs by Annexin-V FITC/propidium iodide staining based flow cytometry (reference value: 2.12%); assay type: functional
[24] = test system: HCT-116; assay: Induction of apoptosis in human HCT116 cells assessed as increase in caspase-8 activity at 5.7 uM measured up to 24 hrs; assay type: functional, cell-based
[25] = test system: HCT-116; assay: Induction of apoptosis in human HCT116 cells assessed as increase in caspase-3/7 activity at 5.7 uM measured up to 24 hrs; assay type: functional, cell-based
[26] = test system: HCT-116; assay: Induction of apoptosis in human HCT116 cells assessed as increase in cck18 level at 5.7 uM measured after 18 hrs; assay type: functional, cell-based
[27] = test system: HCT-116; assay: Induction of apoptosis in human HCT116 cells assessed as appearance of half moon or crescent shape nuclei at 5.7 uM measured after 18 hrs by Hoechst 33258 staining based fluorescence inverted microscopic analysis; assay type: functional, cell-based
[28] = test system: HCT-116; assay: Induction of apoptosis in human HCT116 cells assessed as nuclear fragmentation at 5.7 uM measured after 18 hrs by Hoechst 33258 staining based fluorescence inverted microscopic analysis; assay type: functional, cell-based
[29] = test system: HCT-116; assay: Induction of apoptosis in human HCT116 cells assessed as formation of apoptotic bodies at 5.7 uM measured after 18 hrs by Hoechst 33258 staining based fluorescence inverted microscopic analysis; assay type: functional, cell-based

Row | SMILES | IC50 [1] [µM] | IC50 [2] [µM] | IC50 [3] [µM] | IC50 [4] [µM] | IC50 [5] [µM] | further results
1 | CC[C@@]1(O)C(=O)OCc2c1cc1n(c2=O)Cc2cc3ccccc3nc2-1 [CAMPTOTHECIN] | 5.93 | 1.84 | 3.04 | 6.7 | 1.24 | IC50 at 72 h [6]: 0.89 µM; Activity [7]: Active; Activity [8]: Active; viability at 6.7 µM [9]: 80.9%; Activity [10]: 12.44%; Activity [11]: 1.6%; Activity [12]: 5.07%; Activity [13]: Active; Activity [14]: Active; Activity [15]: Active
2 | C=C(C)[C@@H]1CC[C@]2(C=O)CC[C@]3(C)[C@H](CC[C@@H]4[C@@]5(C)Cc6nn(C(C)=O)nc6C(C)(C)[C@@H]5CC[C@]43C)[C@@H]12 | 53.2 | > 100 | > 100 | > 100 | 46 | –
3 | C=C(C)[C@@H]1CC[C@]2(CO)CC[C@]3(C)[C@H](CC[C@@H]4[C@@]5(C)CCC(=O)C(C)(C)[C@@H]5CC[C@]43C)[C@@H]12 [BETULONE] | 32.9 | 18.2 | 22.5 | 34 | 13.2 | –
4 | C=C(C)[C@@H]1CC[C@]2(C(=O)O)CC[C@]3(C)[C@H](CC[C@@H]4[C@@]5(C)Cc6c(nnc(C)[n+]6[O-])C(C)(C)[C@@H]5CC[C@]43C)[C@@H]12 | > 100 | > 100 | 1.5 | 1.4 | > 100 | IC50 at 72 h [6]: 2.1 µM
5 | C=C(C)[C@@H]1CC[C@]2(COC(C)=O)CC[C@]3(C)[C@H](CC[C@@H]4[C@@]5(C)C(=O)c6nc(C)oc6C(C)(C)[C@@H]5CC[C@]43C)[C@@H]12 | 24 | 48.3 | 40.3 | 33.5 | 22.4 | –
6 | C=C(C)[C@@H]1CC[C@]2(CO)CC[C@]3(C)[C@H](CC[C@@H]4[C@@]5(C)C/C(=N\O)C(=O)C(C)(C)[C@@H]5CC[C@]43C)[C@@H]12 | 47.5 | 27.6 | > 100 | 2.81 | 35.8 | –
7 | C=C(C)[C@@H]1CC[C@]2(COC(C)=O)CC[C@]3(C)[C@H](CC[C@@H]4[C@@]5(C)c6c(noc6C)C(=O)C(C)(C)[C@@H]5CC[C@]43C)[C@@H]12 | 7.85 | 14 | 22.1 | 19 | 14.8 | –
8 | C=C(C)[C@@H]1CC[C@]2(CO)CC[C@]3(C)[C@H](CC[C@@H]4[C@@]5(C)c6c(noc6C)C(=O)C(C)(C)[C@@H]5CC[C@]43C)[C@@H]12 | > 100 | 24.3 | 30.7 | 29.3 | > 100 | –
9 | C=C(C)[C@@H]1CC[C@]2(COC(C)=O)CC[C@]3(C)[C@H](CC[C@@H]4[C@@]5(C)Cc6nn(C(C)=O)nc6C(C)(C)[C@@H]5CC[C@]43C)[C@@H]12 | > 100 | > 100 | 17.8 | 22.5 | > 100 | –
10 | C=C(C)[C@@H]1CC[C@]2(CO)CC[C@]3(C)[C@H](CC[C@@H]4[C@@]5(C)Cc6nn(C(C)=O)nc6C(C)(C)[C@@H]5CC[C@]43C)[C@@H]12 | 20.7 | 2.29 | 7.46 | 5.67 | 4.46 | IC50 at 72 h [6]: 12.7 µM; LD50 at 336 h [16]: > 600 mg/kg; Activity [17]: Tde; Activity [18]: Active; Activity [19]: Active; viability at 5.7 µM [20]: 80.9%; Activity [21]: 14.87%; Activity [22]: 1.04%; Activity [23]: 3.14%; Activity [24]: Active; Activity [25]: Active; Activity [26]: Active; Activity [27]: Active; Activity [28]: Active; Activity [29]: Active
11 | C=C(C)[C@@H]1CC[C@]2(CO)CC[C@]3(C)[C@H](CC[C@@H]4[C@@]5(C)C(=O)c6nc(C)oc6C(C)(C)[C@@H]5CC[C@]43C)[C@@H]12 | 43.2 | 26.7 | 19.4 | 16 | > 100 | –
12 | C=C(C)[C@@H]1CC[C@]2(COC(C)=O)CC[C@]3(C)[C@H](CC[C@@H]4[C@@]5(C)C=C(NC(C)=O)C(=O)C(C)(C)[C@@H]5CC[C@]43C)[C@@H]12 | 37.5 | > 100 | 21.6 | 83.6 | 33.7 | –
13 | C=C(C)[C@@H]1CC[C@]2(CO)CC[C@]3(C)[C@H](CC[C@@H]4[C@@]5(C)C=C(NC(C)=O)C(=O)C(C)(C)[C@@H]5CC[C@]43C)[C@@H]12 | > 100 | > 100 | 10.5 | 5.15 | > 100 | –
14 | C=C(C)[C@@H]1CC[C@]2(CO)CC[C@]3(C)[C@H](CC[C@@H]4[C@@]5(C)Cc6c(nnc(C)[n+]6[O-])C(C)(C)[C@@H]5CC[C@]43C)[C@@H]12 | > 100 | 16.2 | 4.5 | 14.3 | > 100 | –
